Results taken from patent US20220041616A1, “SPIRO COMPOUND AND MEDICAL USES THEREOF” (The National Institutes of Pharmaceutical R&D Co., Ltd., priority 2018, published 2022).

What follows are molecules tested against T1, ACC1 (Homo sapiens, UniProt Q13085) (assay: In vitro inhibition of ACC1 activity, ADP-Glo Kinase Analysis). Conditions: 1 nM ACC1, 10 μM acetyl-CoA, 20 μM ATP.
T1 construct: purchased BPS bioscience
Assay type: biochemical
Source text: ADP-Glo™ Kinase Analysis Kit (Promega) is used for the in vitro analysis of the inhibitory effect of the present compound on ACC1 or ACC2. ADP-Glo™ Kinase Analysis is a kinase detection analysis of luminescence method. ADP is produced in the process of catalyzing the substrate by ACC. ADP is converted into ATP which is then converted into light by Ultra-Glo™ luciferase. ADP is quantified by detecting the light signal, thus the enzyme activity can be measured by quantification of the ADP amount produced during the enzyme reaction. The analysis is carried out in two steps: in the first step, after the kinase reaction, a portion of ADP-Glo™ reagent equal in volume to the kinase reaction system is added to terminate the reaction and consume the remaining ATP; in the second step, a kinase detection reagent is added, which not only converts ADP into ATP, but also uses a coupled luciferase/luciferin reaction to detect newly synthesized ATP.
a. 10 mM compound stock solution (the present compound was dissolved in 100% DMSO to prepare the 10 mM stock solution) was diluted 50-fold to 200 μM with 100% DMSO, and then diluted in equal proportions (1:3) in a 96-well dilution plate (249944, Nunc). The gradient concentrations of the compound were 200 μM, 66.67 μM, 22.22 μM, 7.41 μM, 2.47 μM, 0.823 μM, 0.274 μM, 0.0914 μM, 0.0305 μM, 0.0102 μM, 0.00339 μM and 0.00113 μM.
b. 4.5 μL ACC1 working solution (BPS bioscience) (2.22 nM) was added to each well of a 384-well test plate (6007290, Perkin Elmer).
c. 0.5 μL of the serially diluted compound (prepared in step a) was added to each well of the 384-well test plate, which was centrifuged at 1000 rpm for 1 min and then incubated at room temperature for 15 min. The reaction system with compound GS-0976 at a final concentration of 0.1 μM was used as positive control; the reaction system with no compound but DMSO at a final concentration of 5% was used as negative control.
d. In the 384-well test plate (prepared in step c), 5 μL of the substrate working solution was added to each well to start the enzymatic reaction. The plate was centrifuged at 1000 rpm for 1 min and then incubated at room temperature for 30 min. The final concentration of each component in the ACC1 reaction system: 1 nM ACC1, 10 μM acetyl-CoA, 30 mM NaHCO3, and 20 μM ATP. The final concentration of each component in the ACC2 reaction system: 1.1 nM ACC2, 20 μM acetyl-CoA, 20 mM NaHCO3, and 15 μM ATP. Final concentrations of test compounds: 10 μM, 3.33 μM, 1.11 μM, 0.37 μM, 0.123 μM, 0.0411 μM, 0.0137 μM, 0.00457 μM, 0.00152 μM, 0.00051 μM, 0.00017 μM and 0.000056 μM. The final concentration of DMSO was 5% (v/v).
e. 10 μL of ADP-Glo reagent was added to each well of the 384-well test plate (prepared in step d), which was centrifuged at 1000 rpm for 1 min and then incubated at room temperature for 40 min.
f. 20 μL of kinase detection reagent was added to each well of the 384-well test plate (prepared in step e), which was centrifuged at 1000 rpm for 1 min and then incubated at room temperature for 40 min.
g. The chemiluminescence signal was detected with Perkin Elmer EnVision 2104.
ACC1 working solution and substrate working solution were both prepared with 1× kinase reaction buffer. The buffer was consisting of 50 mM HEPES buffer, 2 mM magnesium chloride, 0.01% BRIJ-35, 2 mM potassium citrate, 50 μg/mL BSA and 2 mM DTT.
The average value of the positive and negative control well and the standard deviation were calculated. The inhibition percentage was calculated according to the following formula: 100×[1−(compound−average value of positive control)/(average value of negative control-average value of positive control)].
IC50 of the compound was obtained using GraphPad Prism 6 software according to the following nonlinear fitting formula:
Y=Bottom+(Top−Bottom)/(1+10^((Log IC50−X)×Hillslope)), […]

**Q.** Which IC50 does the source give for “7′-(2-(2-methoxyphenyl)-2-((tetrahydro-2H-pyran-4-yl)oxy)ethyl)-3′-methyl-2′-(oxazol-2-yl)-4′,6′-dioxo-6′,7′-dihydro-4′H-spiro[cyclohexane-1,5′-thieno[2,3-b]pyridine]-3-carboxylic Acid [Compound 7a]” here?
**A.** > 500 nM

**Q.** Which IC50 does the source give for “7′-(2-(2-methoxyphenyl)-2-((tetrahydro-2H-pyran-4-yl)oxy)ethyl)-3′-methyl-2′-(oxazol-2-yl)-4′,6′-dioxo-6′,7′-dihydro-4′H-spiro[cyclohexane-1,5′-thieno[2,3-b]pyridine]-3-carboxylic Acid [Compound 7b]” here?
**A.** 100 to 500 nM

**Q.** How did the IC50 turn out when Cc1c(-c2ncco2)sc2c1C(=O)C1(CCC(C(=O)O)C1)C(=O)N2CC(OC1CCOCC1)c1ccccc1 (mixture of isomers) [Compound 3, 3′-methyl-2′-(oxazol-2-yl)-4′,6′-dioxo-7′-(2-phenyl-2-((tetrahydro-2H-pyran-4-yl)oxy)ethyl)-6′,7′-dihydro-4′H-spiro[cyclopentane-1,5′-thieno[2,3-b]pyridine]-3-carboxylic Acid] was run?
**A.** 100 to 500 nM

**Q.** Which IC50 does the source give for Cc1c(-c2ncco2)sc2c1C(=O)C1(CCC(C)(C(=O)O)C1)C(=O)N2CC(OC1CCOCC1)c1ccccc1 (mixture of isomers) [Compound 4, 3,3′-dimethyl-2′-(oxazol-2-yl)-4′,6′-dioxo-7′-(2-phenyl-2-((tetrahydro-2H-pyran-4-yl)oxy)ethyl)-6′,7′-dihydro-4′H-spiro[cyclopentane-1,5′-thieno[2,3-b]pyridine]-3-carboxylic Acid] here?
**A.** 100 to 500 nM

**Q.** With COc1ccccc1C(CN1C(=O)C2(CCC(C(=O)O)C2)C(=O)c2c1sc(-c1ncco1)c2C)OC1CCOCC1 (mixture of isomers) [Compound 5, 7′-(2-(2-methoxyphenyl)-2-((tetrahydro-2H-pyran-4-yl)oxy)ethyl)-3′-methyl-2′-(oxazol-2-yl)-4′,6′-dioxo-6′,7′-dihydro-4′H-spiro[cyclopentane-1,5′-thieno[2,3-b]pyridine]-3-carboxylic Acid] as the molecule, how does the IC50 read?
**A.** < 10 nM

**Q.** How did the IC50 turn out when COc1ccccc1C(CN1C(=O)C2(CCC(C(=O)O)C2)C(=O)c2c1sc(-c1ncco1)c2C)OC1CCOCC1 (mixture of isomers) [Compound 5e, 7′-(2-(2-methoxyphenyl)-2-((tetrahydro-2H-pyran-4-yl)oxy)ethyl)-3′-methyl-2′-(oxazol-2-yl)-4′,6′-dioxo-6′,7′-dihydro-4′H-spiro[cyclopentane-1,5′-thieno[2,3-b]pyridine]-3-carboxylic Acid] was run?
**A.** 10 to 100 nM

**Q.** With Cc1c(-c2ncco2)sc2c1C(=O)C1(CCC(C(=O)O)CC1)C(=O)N2CC(OC1CCOCC1)c1ccccc1 (mixture of isomers) [Compound 6, 3′-methyl-2′-(oxazol-2-yl)-4′,6′-dioxo-7′-(2-phenyl-2-((tetrahydro-2H-pyran-4-yl)oxy)ethyl)-6′,7′-dihydro-4′H-spiro[cyclohexane-1,5′-thieno[2,3-b]pyridine]-4-carboxylic acid] as the molecule, how does the IC50 read?
**A.** 100 to 500 nM

**Q.** Cc1c(-c2ncco2)sc2c1C(=O)C1(CCC1)C(=O)N2CC(OC1CCOCC1)c1ccccc1 (racemic) [Compound 1, 3′-methyl-2′-(oxazol-2-yl)-7′-(2-phenyl-2-((tetrahydro-2H-pyran-4-yl)oxy)ethyl)-4′H-spiro[cyclobutane-1,5′-thieno[2,3-b]pyridine]-4′,6′(7′H)-dione] was tested. Which IC50 did it give?
**A.** > 500 nM

**Q.** Which IC50 does the source give for COc1ccccc1C(CN1C(=O)C2(CCC(C(=O)O)C2)C(=O)c2c1sc(-c1ncco1)c2C)OC1CCOCC1 (single isomer, unassigned) [Compound 5a, 7′-(2-(2-methoxyphenyl)-2-((tetrahydro-2H-pyran-4-yl)oxy)ethyl)-3′-methyl-2′-(oxazol-2-yl)-4′,6′-dioxo-6′,7′-dihydro-4′H-spiro[cyclopentane-1,5′-thieno[2,3-b]pyridine]-3-carboxylic Acid] here?
**A.** 10 to 100 nM

**Q.** For COc1ccccc1C(CN1C(=O)C2(CCC(C(=O)O)C2)C(=O)c2c1sc(-c1ncco1)c2C)OC1CCOCC1 (single isomer, unassigned) [Compound 5c, 7′-(2-(2-methoxyphenyl)-2-((tetrahydro-2H-pyran-4-yl)oxy)ethyl)-3′-methyl-2′-(oxazol-2-yl)-4′,6′-dioxo-6′,7′-dihydro-4′H-spiro[cyclopentane-1,5′-thieno[2,3-b]pyridine]-3-carboxylic Acid], which IC50 is on record?
**A.** < 10 nM

**Q.** Which IC50 does the source give for COc1ccccc1C(CN1C(=O)C2(CCC(C(=O)O)C2)C(=O)c2c1sc(-c1ncco1)c2C)OC1CCOCC1 (single isomer, unassigned) [Compound 5d, 7′-(2-(2-methoxyphenyl)-2-((tetrahydro-2H-pyran-4-yl)oxy)ethyl)-3′-methyl-2′-(oxazol-2-yl)-4′,6′-dioxo-6′,7′-dihydro-4′H-spiro[cyclopentane-1,5′-thieno[2,3-b]pyridine]-3-carboxylic Acid] here?
**A.** < 10 nM

**Q.** Which IC50 does the source give for COc1ccccc1C(CN1C(=O)C2(CC(C(=O)O)C2)C(=O)c2c1sc(-c1ncco1)c2C)OC1CCOCC1 (single isomer, unassigned) [Compound 8a, 7′-(2-(2-methoxyphenyl)-2-((tetrahydro-2H-pyran-4-yl)oxy)ethyl)-3′-methyl-2′-(oxazol-2-yl)-4′,6′-dioxo-6′,7′-dihydro-4′H-spiro[cyclobutane-1,5′-thieno[2,3-b]pyridine]-3-carboxylic Acid] here?
**A.** 10 to 100 nM

**Q.** With COc1ccccc1C(CN1C(=O)C2(CC(C(=O)O)C2)C(=O)c2c1sc(-c1ncco1)c2C)OC1CCOCC1 (single isomer, unassigned) [Compound 8b, 7′-(2-(2-methoxyphenyl)-2-((tetrahydro-2H-pyran-4-yl)oxy)ethyl)-3′-methyl-2′-(oxazol-2-yl)-4′,6′-dioxo-6′,7′-dihydro-4′H-spiro[cyclobutane-1,5′-thieno[2,3-b]pyridine]-3-carboxylic Acid] as the molecule, how does the IC50 read?
**A.** 100 to 500 nM

**Q.** With Cc1c(-c2ncco2)sc2c1C(=O)C1(CCCC1)C(=O)N2CC(OC1CCOCC1)c1ccccc1 (centres unmarked) [Compound 2, 3′-methyl-2′-(oxazol-2-yl)-7′-(2-phenyl-2-((tetrahydro-2H-pyran-4-yl)oxy)ethyl)-4′H-spiro[cyclopentane-1,5′-thieno[2,3-b]pyridine]-4′,6′(7′H)-dione] as the molecule, how does the IC50 read?
**A.** > 500 nM

**Q.** With CNC(=O)[C@H]1C[C@@]2(C1)C(=O)c1c(sc(-c3ncco3)c1C)N(C[C@H](OC1CCOCC1)c1ccccc1OC)C2=O [Compound 9] as the molecule, how does the IC50 read?
**A.** < 10 nM

**Q.** How did the IC50 turn out when COc1ccccc1[C@H](CN1c2sc(-c3ncco3)c(C)c2C(=O)[C@]2(C[C@H](C(=O)NCC(=O)O)C2)C1=O)OC1CCOCC1 [Compound 10, ((1s,3S)-7′-((R)-2-(2-methoxyphenyl)-2-((tetrahydro-2H-pyran-4-yl)oxy)ethyl)-3′-methyl-2′-(oxazol-2-yl)-4′,6′-dioxo-6′,7′-dihydro-4′H-spiro[cyclobutane-1,5′-thieno[2,3-b]pyridine]-3-carbonyl)glycine] was run?
**A.** < 10 nM

**Q.** Which IC50 does the source give for COC(=O)CNC(=O)[C@H]1C[C@@]2(C1)C(=O)c1c(sc(-c3ncco3)c1C)N(C[C@H](OC1CCOCC1)c1ccccc1OC)C2=O [Compound 10-1, methyl ((1s,3S)-7′-((R)-2-(2-methoxyphenyl)-2-((tetrahydro-2H-pyran-4-yl)oxy)ethyl)-3′-methyl-2′-(oxazol-2-yl)-4′,6′-dioxo-6′,7′-dihydro-4′H-spiro[cyclobutane-1,5′-thieno[2,3-b]pyridine]-3-carbonyl)glycinate] here?
**A.** < 10 nM
